The results in this text go back to paper PMC9709777, “Enzyme-instructed morphology transformation of mitochondria-targeting peptide for the selective eradication of osteosarcoma” (RSC Chemical Biology, 2022).

Series [1] is described as follows: CAC determination by pyrene excitation method. The format is physicochemical. As to the method: (§1) L-Mito-FFYp consists of a tripeptide backbone Phe–Phe–Tyrp (Tyrp stands for tyrosine phosphate) in which pyrene butyric acid is capped on the N-terminus to promote the self-assembly and TPP is conjugated to the amine group of the lysine side chain for targeting the mitochondria (Fig. S1, ESI ^†). The CAC of L-Mito-FFYp was determined to be 12 μM via pyrene excitation method (Fig. 1A). […] The EIMT of L-Mito-FFYp was investigated by treating it with ALP enzyme. After 24 h incubation (37 °C), fibers having a diameter of ca. 10 nm were observed via transmission electron microscopy (TEM) analysis (Fig. 1D). Specifically, micelles with a diameter of 53 nm were converted into fibers with a diameter of 12.9 nm, most likely by the action of the ALP enzyme. To confirm that the fiber structure corresponded to L-Mito-FFY, L-Mito-FFY was separately synthesized and purified (Fig. S2A and B, ESI ^†). It was supposed after the phosphate group cleaved from the ALP enzyme. The L-tyrosine phosphate was replaced with L-tyrosine. Its self-assembled morphology was analyzed via TEM. Similar fibers with a diameter of 10 nm were observed (Fig. S3, ESI ^†), confirming that ALP transforms the L-Mito-FFYp micelles into L-Mito-FFY fibers.
Fig. 1 (A) CAC determination of L-Mito-FFYp using pyrene excitation method. […]

Series [2] is described as follows: Surface charge (zeta potential) analysis. The format is physicochemical. The settings on record: 15 μM solution (over the CAC value).
Series [3] is described as follows: TEM analysis of self-assembled morphology, with and without ALP enzyme. The format is physicochemical. The settings on record: 15 μM, before ALP treatment. On the procedure:
as §1, with “Similar fibers with a diameter of 10 nm were observed (Fig. S3, ESI ^†), confirming that ALP transforms the L-Mito-FFYp micelles into L-Mito-FFY fibers.” left out
(§2) Imaging of apoptosis/necrosis-dependent cell death. […] The cells were then washed gently, the medium was replaced with DMEM medium, and the cells were analyzed using an LSM780 laser confocal scanning microscope. […]

The next series concerns SK-BR-3 cell line. The format is cell-based. Conditions: 48 h, 10 μM. On the procedure: (§3) To confirm that the cytotoxicity of L-Mito-FFYp stems from its selectivity toward ALP and the consequent morphology transformation, the cytotoxicity was evaluated toward Saos-2, HeLa, SK-BR-3, and NIH-3T3 cell lines. SK-BR-3 and NIH-3T3 cell lines are known to express fewer ALP enzymes. […] And the cytotoxicity of L-Mito-FFYp in the Saos-2 cell line was analyzed in the presence and absence of endocytosis inhibitors such as chlorpromazine (clathrin), sucrose (macropinocytosis), and M-β-cyclodextrin (caveolin). […] To further verify the important role of the phosphate moiety, we synthesized L-Mito-FFY compound (Fig. S2, ESI ^†). […] After phosphoric acid was cleaved by the ALP enzyme overexpressed in the Saos-2 cell membrane, Mito-FFY was accumulated in the mitochondria. As a result, apoptosis occurred due to mitochondrial membrane disruption induced by self-assembled fibers inside the mitochondria.
(§4) Fig. 3 (A) Cell viability analysis of L-Mito-FFYp in Saos-2, HeLa, SK-BR-3 and NIH 3T3 cell lines for an incubation time of 48 h. (B) Cell viability analysis of L-Mito-FFYp in the presence of different endocytosis inhibitos. […] (E) Western blotting analysis showing the release of cytochrome C after treatment with L-Mito-FFYp. TEXT PRINTED IN THE PICTURE: (D) Mito-FFYp: Q1 0.91; Q2 26.4; Q3 8.97; Q4 63.7 DOUBTS OF THE COPYIST ABOUT THIS PICTURE: Mito-FFYp, panel D, Q1: very small blurred print, 0.91 uncertain (could be 0.51 or 0.61) / Mito-FFYp, panel D, Q2: very small blurred print, 26.4 uncertain (6 could be 5 or 8) / Mito-FFYp, panel D, Q3: very small blurred print, 8.97 uncertain (could be 6.97 or 8.57) / Mito-FFYp, panel D, Q4: very small blurred print, 63.7 uncertain (could be 65.7 or 83.7) / Panel D, Control plot also prints quadrant numbers (about Q1 0.090, Q2 0.24, Q3 0.078, Q4 99.6). […]
(§5) M. T. Jeena,‡a Seongeon Jin,‡ a Batakrishna Jana,a and Ja-Hyoung Ryu,*a Materials. All peptides were synthesized manually on a […] scale. The products were purified by high-performance liquid chromatography (HPLC, Agilent Technologies, USA) with a C-18 reverse column in ACN/water mixture. […]

Series [4] has as its system Saos-2 cell line. The format is cell-based. As to the method:
as §3, §4, §5

The next series relates to HeLa cells. The series can be described thus: Cell viability, MTT assay. Conditions: 48 h incubation, read-out: Concentration at which 50% viability was observed. The format is cell-based. As to the method:
as §3
(§6) Fig. 3 (A) Cell viability analysis of L-Mito-FFYp in Saos-2, HeLa, SK-BR-3 and NIH 3T3 cell lines for an incubation time of 48 h. (B) Cell viability analysis of L-Mito-FFYp in the presence of different endocytosis inhibitos. […] (E) Western blotting analysis showing the release of cytochrome C after treatment with L-Mito-FFYp. […]
In general terms: Tetrazolium assays rely on reduction of a dye to a coloured formazan, in cell work by metabolically active cells.

The next series has as its system NIH-3T3 cell line. The series can be described thus: Cell viability, MTT assay. The format is cell-based. Conditions: NIH 3T3, 10 μM, 48 h incubation. On the procedure: as §3, §6
Another series has as its system Saos-2 cells. In words: FITC-annexin V/PI assay (confocal imaging and FACS) for mechanism of cell death. Conditions: FITC-annexin V/PI staining. The format is cell-based. On the procedure: as §3
Fig. 3 (A) Cell viability analysis of L-Mito-FFYp in Saos-2, HeLa, SK-BR-3 and NIH 3T3 cell lines for an incubation time of 48 h. […] They are left out because Control is not a substance, and the digits are not readable with certainty […]
as §2

The nature of series [5]: Cell viability in the presence of ALP inhibitor NBT-BCIP. The format is cell-based. The settings on record: co-treatment with NBT-BCIP solution. As to the method:
as §3
Figure S14. Cell viability analysis of Mito-FFYp in the presence of ALP inhibitor, NBT-BCIP.
(1 picture or pasted object on this page, not shown here)

A further series has as its system cytochrome C. The series can be described thus: Western blotting of cytochrome C release. The format is cell-based. The settings on record: western blotting after treatment. On the procedure: as §3
Fig. 3 (A) Cell viability analysis of L-Mito-FFYp in Saos-2, HeLa, SK-BR-3 and NIH 3T3 cell lines for an incubation time of 48 h. (B) Cell viability analysis of L-Mito-FFYp in the presence of different endocytosis inhibitos. […] (E) Western blotting analysis showing the release of cytochrome C after treatment with L-Mito-FFYp. […] They are left out because Control is not a substance, and the digits are not readable with certainty
For orientation: In western blotting, separated proteins are transferred to a membrane and probed.

Series [6] concerns Saos-2 cell line. The series can be described thus: Cellular ROS by dihydroethidium (DHE) staining, confocal microscopy and flow cytometry. The format is cell-based. Conditions: Saos-2, DHE staining, 20 μM. Background: Flow cytometry measures light scatter and fluorescence of single cells or particles in a stream.

Read-outs that look alike come from different tables or passages of the source.

In the case of `NC(=O)[C@H](CCCCNCCCCCC[P+](c1ccccc1)(c1ccccc1)c1ccccc1)NC(=O)[C@H](Cc1ccc(OP(=O)(O)O)cc1)NC(=O)[C@H](Cc1ccccc1)NC(=O)[C@H](Cc1ccccc1)NC(=O)CCCc1ccc2ccc3cccc4ccc1c2c34` [L-Mito-FFYp], the “Critical Aggregation Concentration (CAC)” value in series [1] stood at 12 µM. For the same compound, the “Surface charge (zeta potential)” value in [2] is −25.6 ± 0.32 mV. The same compound displayed a Micelle diameter in series [3] of 53 nm. The Cell viability in the series on SK-BR-3 cell line and in the series on NIH-3T3 cell line was around 90% each time. Moreover, the IC50 was around 5 µM with Saos-2 cell line [4] (Saos-2, 48 h incubation, MTT, read-out: Concentration at which 50% viability was observed); around 10 µM in the series with Saos-2 cell line [4] (human); around 5 µM with HeLa cells. In the series on Saos-2 cells, the “Mechanism of cell death” value is “late apoptosis”. Further, the “Toxicity in the presence of ALP inhibitor” value in [5] is on record as “remarkably reduced”. Further, the “Cytochrome C release from the mitochondria” value with cytochrome C is reported as “released”. Besides, in the series on Saos-2 cell line [6], the “Cellular ROS” value is listed as “overproduction of ROS”.
